Consider 18 molecules from patent US9896441B2 (Lycera Corporation, priority 2014, dated 2018).

The target of one test is T1, Gal4-RORγ-LBD (Homo sapiens, UniProt P51449).
T1 construct: expressed in transfected cells
T1 sequence (P51449 269-508 limits assumed): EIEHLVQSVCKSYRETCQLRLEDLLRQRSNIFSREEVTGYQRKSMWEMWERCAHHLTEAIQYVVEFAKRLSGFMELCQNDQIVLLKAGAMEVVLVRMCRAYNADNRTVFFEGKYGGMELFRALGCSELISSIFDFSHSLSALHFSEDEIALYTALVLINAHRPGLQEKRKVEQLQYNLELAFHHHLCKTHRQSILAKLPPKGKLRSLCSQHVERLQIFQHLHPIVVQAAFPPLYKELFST
Put plainly: Gal4-RORγ Luciferase Reporter Assay in HEK-293T Cells. In kind it is cell-based. The settings on record: HEK-293 cells, luciferase reporter, in presence of ursolic acid. The method, then:
(§1) Assay procedures and results are described below.
In the following protocol, HEK-293 cells were transfected with a construct comprising the Gal4 DNA binding domain fused to the ligand binding domain of RORγ (Gal4-RORγ-LBD) in a pcDNA3.1neo plasmid, and also with a reporter construct comprising pGL4.31 Gal4-luciferase (Promega). Control cells were prepared similarly using empty pcDNA3.1neo and pGL4.31 vectors.
Trans-IT reagent (Mirus, 60 μL) at room temperature was added drop wise to OptiMEM (Invitrogen, 1.5 ml). This reagent mixture was mixed by inversion then incubated for 5 to 30 minutes at room temperature. It then was added to a solution of both expression vectors (5 μg each), mixed, and incubated at room temperature for about 20 minutes. HEK-293 cells were harvested from incubation flasks by removing the media, treating with TrypLE Express (Invitrogen), and incubating until the cells detached from the bottom of the flask (approximately 2-5 minutes). 10 Million cells were collected by centrifugation and re-suspended in 10 mL of Dulbecco's Modified Eagle Medium, High Glucose (DMEM, Invitrogen) containing 10% Fetal Bovine Serum and 100 IU each of penicillin and streptomycin. The re-suspended cells and the transfection mixture were added to a T75 flask, mixed and incubated overnight at 37° C. and 5% CO2.
The cells were harvested as described above, counted, and centrifuged to obtain the desired number of cells, then re-suspended in complete growth media at 0.75×10^6 cells/mL. The RORγ antagonist, ursolic acid, was added to the cells at a final concentration of […]. Cells were plated at 20 µL of cell suspension/well (10,000-15,000 cells/well) in white tissue culture treated 384 well plates. Test compounds were dissolved at 10 mM in DMSO then diluted into complete growth medium to 5× the final intended test concentration. These drug stock solutions, 5 µL/well were added to the tissue culture plate. The final DMSO concentration was 0.2%. The plates were briefly centrifuged then incubated overnight at 37° C. and 5% CO2. To conduct the assay, the tissue culture plates were allowed to equilibrate to room temperature and One-Glo luciferase reagent (Promega, 25 µL/well) was added. The plates were briefly centrifuged then incubated at room temperature for 10 minutes. The luciferase intensity was read on an Envision plate reader (Perkin Elmer). […] The luciferase signal in the absence of ursolic acid or test compound is defined at 100. The Max Response is the upper plateau in the signal as determined by line-fit using a 4-parameter logistic model in PRISM (GraphPad).
For the molecule `CC(=O)NC1CN(C(=O)CC[C@H]2CN(S(=O)(=O)c3cccc(C(F)(F)F)c3)c3cc(/C=C(\C)c4c(F)cccc4Cl)ccc3O2)C1` [Example 127N, (S,E)-N-(1-(3-(6-(2-(2-chloro-6-fluorophenyl)-prop-1-en-1-yl)-4-((3-(trifluoromethyl)phenyl)-sulfonyl)-3,4-dihydro-2H-benzo[b][1,4]oxazin-2-yl)propanoyl)azetidin-3-yl)acetamide], the EC50 is under 500 nM.

The test is the same for the next values; noted with them: HEK-293 cells, luciferase reporter, in presence of ursolic acid, maximum response.
Consider `C/C(=C\c1ccc2c(c1)N(S(=O)(=O)c1cccc(C(F)(F)F)c1)C[C@H](CCC(=O)N1C3CCC1COC3)O2)c1c(F)cccc1Cl` [Example 127K, 1-(3-oxa-8-azabicyclo-[3.2.1]octan-8-yl)-3-((S)-6-((E)-2-(2-chloro-6-fluorophenyl)prop-1-en-1-yl)-4-((3-(trifluoro-methyl)phenyl)sulfonyl)-3,4-dihydro-2H-benzo[b][1,4]oxazin-2-yl)propan-1-one], for which the “Gal4-RORγ Assay Max Response” value is listed as “** (a value in the range of greater than 90 to 150)”. Consider `CC(=O)NC1CN(C(=O)CC[C@H]2CN(S(=O)(=O)c3cccc(C(F)(F)F)c3)c3cc(/C=C(\C)c4c(F)cccc4Cl)ccc3O2)C1` [Example 127N, (S,E)-N-(1-(3-(6-(2-(2-chloro-6-fluorophenyl)-prop-1-en-1-yl)-4-((3-(trifluoromethyl)phenyl)-sulfonyl)-3,4-dihydro-2H-benzo[b][1,4]oxazin-2-yl)propanoyl)azetidin-3-yl)acetamide], for which the “Gal4-RORγ Assay Max Response” value is “** (a value in the range of greater than 90 to 150)”.

Staying with this test, now noted: HEK-293 cells, luciferase reporter, with ursolic acid.
In turn, `COC(=O)CC[C@H]1CN(S(=O)(=O)c2cccc(C(F)(F)F)c2)c2cc(/C=C/c3cccnc3C(F)(F)F)ccc2O1` [Example 89DF, methyl (S,E)-3-(4-((3-(trifluoromethyl)phenyl)-sulfonyl)-6-(2-(2-(trifluoromethyl)pyridin-3-yl)vinyl)-3,4-dihydro-2H-benzo[b][1,4]oxazin-2-yl)propanoate] displayed a concentration giving a half-maximal response (EC50) of over 10000 nM. On to `C/C(=C\c1ccc2c(c1)N(S(=O)(=O)c1cccc(C(F)(F)F)c1)C[C@H](CCC(=O)O)O2)c1c(Cl)cccc1Cl` [Example 86AE, (S,E)-3-(6-(2-(2,6-dichlorophenyl)prop-1-en-1-yl)-4-((3-(trifluoromethyl)phenyl)-sulfonyl)-3,4-dihydro-2H-benzo[b][1,4]oxazin-2-yl)propanoic acid], for which the EC50 is under 500 nM.

The next test has as its target T2, RORγ-LBD (Homo sapiens, UniProt P51449).
T2 construct: made in house; host or cells: SF9 cells (baculovirus); used as diluted lysate
T2 sequence (P51449 269-508 limits assumed): T1 sequence (P51449 269-508 limits assumed)
Nature of the test: RORγ-Ligand Binding Domain (LBD) TR-FRET Assay.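 As to TR-FRET Assay Max Response: 665/615 nm signal ratio set to 100 without ursolic acid or test compound.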 Type of test: biochemical. Conditions: RORγ-LBD TR-FRET. The method, then:
as §1
HIS-tagged RORγ-LBD protein was expressed in SF9 cells using a baculovirus expression system. The lysate was diluted in assay buffer (50 mM Tris pH 7.0, 50 mM KCl, 1 mM EDTA, 0.1 mM DTT, 0.01% BSA) to obtain RORγ-LBD final concentration of ˜3 nM in a 384-well assay plate (need to titrate for each batch of protein).
A stock of biotinylated-LXXLL peptide from coactivator SRC1 (Biotin-[…]) was prepared in assay buffer and added to each well (200 nM final concentration). […] RORγ antagonist ursolic acid was also included at a final concentration of 2 μM. Compounds were diluted in DMSO and further diluted in assay buffer with a final DMSO concentration at 1%.
The molecule `O=C(O)CC[C@H]1CN(S(=O)(=O)c2cc(C(F)(F)F)cnc2OCCO)c2cc(C=C3CCC(O)CC3)ccc2O1` (stereo partly drawn) [Example 95V, 3-((2S)-6-((4-hydroxycyclohexylidene)-methyl)-4-((2-(2-hydroxyethoxy)-5-(trifluoromethyl)pyridin-3-yl)sulfonyl)-3,4-dihydro-2H-benzo[b][1,4]oxazin-2-yl)propanoic acid] displayed a concentration giving a half-maximal response (EC50) of 500 to 5000 nM. The same measure, in the same setting: the same measure for `O=C(O)CC[C@H]1CN(S(=O)(=O)c2cc(C(F)(F)F)cnc2OCCO)c2cc(/C=C3\CCCOC3)ccc2O1` [Example 95X, (S,E)-3-(6-((dihydro-2H-pyran-3(4H)-ylidene)methyl)-4-((2-(2-hydroxyethoxy)-5-(trifluoromethyl)pyridin-3-yl)sulfonyl)-3,4-dihydro-2H-benzo[b][1,4]oxazin-2-yl)propanoic acid]: 500 to 5000 nM; for `COc1cc(S(=O)(=O)N2c3cc(OCc4c(F)cccc4Cl)ccc3C[C@@H](C(=O)O)[C@H]2C)ccc1F` (racemic) [Example 21, (2R,3R)-7-((2-Chloro-6-fluorobenzyl)oxy)-1-((4-fluoro-3-methoxyphenyl)sulfonyl)-2-methyl-1,2,3,4-tetrahydroquinoline-3-carboxylic acid]: under 500 nM. On the same count and under the same terms, the same measure for `O=S(=O)(c1cccc(C(F)(F)F)c1)N1CCCc2cc(OCc3ccccc3)ccc21` [Example 25K, 6-(benzyloxy)-1-((3-(trifluoromethyl)phenyl)sulfonyl)-1,2,3,4-tetrahydroquinoline]: under 500 nM; for `CCOc1ncc(C(F)(F)F)cc1S(=O)(=O)N1C[C@H](CCC(=O)OC)Oc2ccc(C=C3CCCCC3)cc21` [Example 95A, methyl (S)-3-(6-(cyclohexylidenemethyl)-4-((2-ethoxy-5-(trifluoromethyl)pyridin-3-yl)sulofnyl)-3,4-dihydro-2H-benzo[b][1,4]oxazin-2-yl)propanoate]: 500 to 5000 nM; for `COC(=O)CC[C@H]1CN(S(=O)(=O)c2cccc(C(F)(F)F)c2)c2cc(/C=C/c3c(C)noc3C)ccc2O1` [Example 89BS, (S,E)-methyl 3-(6-(2-(3,5-dimethylisoxazol-4-yl)vinyl)-4-((3-(trifluoromethyl)phenyl)-sulfonyl)-3,4-dihydro-2H-benzo[b][1,4]-oxazin-2-yl)propanoate]: under 500 nM. On the same count and under the same terms, the same measure for `COc1cc(S(=O)(=O)N2CCCc3ccc(OCc4c(F)cccc4Cl)cc32)ccc1F` [Example 24, 7-((2-Chloro-6-fluorobenzyl)oxy)-1-((4-fluoro-3-methoxyphenyl)sulfonyl)-1,2,3,4-tetrahydroquinoline]: under 500 nM. Regarding `O=C(O)CC[C@H]1CN(S(=O)(=O)c2cccc(C(F)(F)F)c2)c2cc(/C=C/c3ccnn4cccc34)ccc2O1` [Example 89BM, (S,E)-3-(6-(2-(pynolo[1,2-b]pyridazin-4-yl)vinyl)-4-((3-(trifluoromethyl)phenyl)sulfonyl)-3,4-dihydro-2H-benzo[b][1,4]oxazin-2-yl)propanoic acid], the EC50 was 500 to 5000 nM.

Still in this test, the particulars now being: RORγ-LBD TR-FRET assay.
For `C[C@@H]1[C@H](NC(=O)Nc2ccccn2)Cc2ccc(/C=C/c3c(F)cccc3C(F)(F)F)cc2N1S(=O)(=O)c1cccc(C(F)(F)F)c1` [Example 116M, 1-((2R,3R)-7-((E)-2-fluoro-6-(trifluoromethyl)styryl)-2-methyl-1-((3-(trifluoro-methyl)phenyl)sulfonyl)-1,2,3,4-tetrahydroquinolin-3-yl)-3-(pyridin-2-yl)urea], the EC50 was in the range of 500 to 5000 nM. On the same count and under the same terms, then `CC(=O)N[C@@H]1Cc2ccc(/C=C(\C)c3c(F)cccc3Cl)cc2N(S(=O)(=O)c2cccc(C(F)(F)F)c2)[C@@H]1C` [Example 148, N-((2R,3R)-7-((E)-2-(2-Chloro-6-fluorophenyl)prop-1-en-1-yl)-2-methyl-1-((3-(trifluoromethyl)phenyl)sulfonyl)-1,2,3,4-tetrahydroquinolin-3-yl)acetamide], with under 500 nM; and `C/C(=C\c1ccc2c(c1)C[C@@H](C(=O)O)[C@@H](C)N2S(=O)(=O)c1cccc(C(F)(F)F)c1)c1c(F)cccc1Cl` [Example 149, (2R,3R)-6-((E)-2-(2-Chloro-6-fluorophenyl)prop-1-en-1-yl)-2-methyl-1-((3-(trifluoromethyl)phenyl)sulfonyl)-1,2,3,4-tetrahydroquinoline-3-carboxylic acid], with over 10000 nM.

The test is the same for the next values; noted with them: RORγ-LBD TR-FRET assay, maximum response.
As to `C[C@@H]1[C@H](NC(=O)Nc2ccccn2)Cc2ccc(/C=C/c3c(F)cccc3C(F)(F)F)cc2N1S(=O)(=O)c1cccc(C(F)(F)F)c1` [Example 116M, 1-((2R,3R)-7-((E)-2-fluoro-6-(trifluoromethyl)styryl)-2-methyl-1-((3-(trifluoro-methyl)phenyl)sulfonyl)-1,2,3,4-tetrahydroquinolin-3-yl)-3-(pyridin-2-yl)urea], the “TR-FRET Assay Max Response” value is recorded as “*** (a value in the range of greater than 150 to 200)”. Same read-out and setting: the same measure for `CC(=O)N[C@@H]1Cc2ccc(/C=C(\C)c3c(F)cccc3Cl)cc2N(S(=O)(=O)c2cccc(C(F)(F)F)c2)[C@@H]1C` [Example 148, N-((2R,3R)-7-((E)-2-(2-Chloro-6-fluorophenyl)prop-1-en-1-yl)-2-methyl-1-((3-(trifluoromethyl)phenyl)sulfonyl)-1,2,3,4-tetrahydroquinolin-3-yl)acetamide]: “** (a value in the range of greater than 90 to 150)”.

The same test, now with this note: with 2 μM ursolic acid (RORγ antagonist); highest test concentration 10 μM.
`COc1cc(S(=O)(=O)N2CC(CO)Cc3ccc(OCc4c(F)cccc4Cl)cc32)ccc1F` (stereo not drawn): the EC50 is under 500 nM. On the same count and under the same terms, the same measure for `COC(=O)CCC[C@H]1CN(S(=O)(=O)c2cccc(C(F)(F)F)c2)c2cc(/C=C(\C)c3c(F)cccc3Cl)ccc2O1` [Example 195H, methyl (S,E)-4-(6-(2-(2-chloro-6-fluorophenyl)prop-1-en-1-yl)-4-((3-(trifluoromethyl)phenyl)-sulfonyl)-3,4-dihydro-2H-benzo[b][1,4]oxazin-2-yl)butanoate]: under 500 nM; for `C/C(=C\c1ccc2c(c1)N(S(=O)(=O)c1cccc(C(F)(F)F)c1)C[C@H](CCCC(=O)O)O2)c1c(F)cccc1Cl` [Example 195G, (S,E)-4-(6-(2-(2-chloro-6-fluorophenyl)prop-1-en-1-yl)-4-((3-(trifluoromethyl)phenyl)-sulfonyl)-3,4-dihydro-2H-benzo[b][1,4]oxazin-2-yl)butanoic acid]: under 500 nM.
